Experimental data reported in US20220142983A1, “METHODS OF TREATING CANCER WITH FARNESYLTRANSFERASE INHIBITORS” (Kura Oncology, Inc., priority 2019, published 2022).

How the values were obtained:
Format in all cases: in vivo, human
[1] = tested on: relapsed and refractory AML patients; test: Tipifarnib clinical study in relapsed and refractory AML patients
Protocol: (§1) Clinical studies with tipifarnib were performed in newly diagnosed elderly patients with poor risk AML or relapsed and refractory AML. In these studies, patient selection was not based on genetic markers. Anecdotal evidence of tipifarnib single agent activity was reported.

[2] = tested on: relapsed/refractory CMML patients; test: Tipifarnib clinical study in relapsed/refractory CMML patients
Protocol: Clinical studies with tipifarnib were performed in relapsed/refractory CMML patients (N=20) receiving tipifarnib as a single agent orally, twice a day (bid) for 7 days in alternating weeks (Days 1-7 and 15-21) in 28 day cycles. Eligible patients received tipifarnib administered at a starting dose of 1200 mg or 900 mg, orally with food, bid for 7 days in alternating weeks (Days 1-7 and 15-21) in 28 day cycles. Stepwise 300 mg dose reductions to control treatment-related, treatment-emergent toxicities were allowed.
Inclusion Criteria for this clinical study include: (a) diagnosis of CMML as defined by the World Health Organization (WHO) criteria; (b) Eastern Cooperative Oncology Group (ECOG) performance status 0 or 1; (c) subject is willing and able to comply with scheduled visits, treatment plans, laboratory tests and other procedures (including bone marrow assessments); (d) at least 1 week since the last systemic therapy regimen prior to Cycle 1 Day 1, subjects on a stable dose of hydroxyurea for at least 2 weeks prior to Cycle 1 Day 1 may continue on hydroxyurea until Cycle 1 Day 7, and subjects must have recovered to NCI CTCAE v. […] Both females and male subjects with female partners of child-bearing potential must agree to use an adequate method of contraception for 2 weeks prior to screening, during, and at least 4 weeks after last dose of study medication. Female subjects must have a negative serum or urine pregnancy test within 72 hours prior to start of study medication. Not breast feeding at any time during the study; and (h) written and voluntary informed consent understood, signed and dated. […]

[3] = tested on: newly diagnosed elderly patients with poor risk AML; test: Tipifarnib clinical study in newly diagnosed elderly patients with poor risk AML; conditions: for PFS: N=34
Protocol: as §1
Patient subset—available AML marrow samples with NRAS WT or unknown, N=27 (NCBI GEO, GSE8970).
Since achievement of CR is the main driver of clinical benefit in AML, additional screenings were conducted to differentiate the CR responses vs HI/SD responses in the higher RHOE expression levels subset of FIG. 3A (replicated in FIG. 4A).
Another screening conducted to differentiate the CR responses and HI/SD responses from PD responses was based on both RHOE expression levels and RHOA expression levels of the subjects shown in FIG. 3A (replicated in FIG. 5). RHOA mRNA expression data was generated by RNASeq and expressed as RNA Seq V2 RSEM.
The mRNA expression profiling data from the clinical study with newly diagnosed elderly patients with poor risk AML were also analyzed for CXCR3, CXCL12, and RHOE. Patient subset—available AML marrow samples with NRAS WT, unknown, N-12, N12/N13, or N61 (1,2); N=34. […] Probe 207681 used for CXCR3 in the GPL96 Affimetrix microarray. The combination of the CXCR3 expression levels and CXC12 expression levels of newly-diagnosed elderly, frail AML patients, also correlated with treatment response. In particular, the product (multiplication) of the CXCR3 (“receptor”) expression levels and the CXCL12 (“ligand”) expression levels further differentiated the CR and HI/SD responses from the PD responses in the AML patients treated with tipifarnib. […] PFS in the high CXCL12×CXCR3 product subset was 433 days vs. 64 days in the low expressing product subset (HR=0.24, p=0.005, N=34).

[4] = higher pre-treatment CXCL12xCXCR3 product levels (20,000 or more) (FIG. 7)
[5] = lower RHOE expression levels (FIG. 3A)
[6] = lower pre-treatment CXCL12xCXCR3 product levels (less than 20,000) (FIG. 7)

Cn1cncc1[C@@](N)(c1ccc(Cl)cc1)c1ccc2c(c1)c(-c1cccc(Cl)c1)cc(=O)n2C [tipifarnib]
mPFS percentage ([1]; CXCR3 expression levels in the first tertiale, N=58 (FIG. 10)): 54 days
mPFS percentage ([1]; CXCR3 expression levels in the second tertiale, N=58 (FIG. 10)): 75 days
mPFS percentage ([1]; CXCR3 expression levels in the third tertiale, N=58, p=0.009 (FIG. 10)): 182 days
median Time to Treatment Failure (TTF) ([2]; tertiale 1 (lowest PRICKLE2 expression), tipifarnib single agent (FIG. 11)): 99 days
median Time to Treatment Failure (TTF) ([2]; tertiale 2 of PRICKLE2 expression, tipifarnib single agent (FIG. 11)): 84 days
median Time to Treatment Failure (TTF) ([2]; tertiale 3 (highest PRICKLE2 expression), tipifarnib single agent, p=0.047 vs tertiale 1 (FIG. 11)): 288 days
median progression free survival ([3]; CXCR3 expression levels in the first quartile (FIG. 9)): about 10 days
median progression free survival ([3]; CXCR3 expression levels in the fourth quartile, p=0.0004 (FIG. 9)): 406 days
median progression free survival ([3]; CXCR3 expression levels in the second quartile (FIG. 9)): about 70 days
median progression free survival ([3]; CXCR3 expression levels in the third quartile (FIG. 9)): 248 days
median progression free survival ([3]; RND3 expression levels greater than or equal to 144 (higher RHOE) (FIG. 3B)): 8.2 months
median progression free survival ([3]; RND3 expression levels less than 144 (lower RHOE) (FIG. 3B)): 2.2 months
PFS ([3]; high CXCL12xCXCR3 product subset): 433 days
PD responses ([3]; higher RHOE expression levels (FIG. 3A)): 1 out of 14
CR responses [3, 4]: 8 out of 14 subjects
PD responses [3, 4]: 0 out of 14
SD/HI responses [3, 4]: 6 out of 14 subjects
PFS ([3]; low expressing CXCL12xCXCR3 product subset): 64 days
CR responses [3, 5]: 0 out of 13 subjects
PD responses [3, 5]: 7 out of 13 subjects
CR responses [3, 6]: 1 out of 20 subjects
PD responses [3, 6]: 13 out of 20 subjects
SD/HI responses [3, 6]: 6 out of 20 subjects
HR (PFS, high vs low CXCL12xCXCR3 product subset) ([3]; p=0.005, N=34): 0.24
CR responses ([3]; treatment naive elderly, frail AML patients with higher RHOE expression levels (FIG. 3A)): 8 out of 14 subjects
